Data on five compounds can be found in patent US20230339945A1, “METHOD FOR PREPARING A CHELATING LIGAND DERIVED FROM PCTA” (GUERBET, priority 2020, published 2023).

Each structure is given as a SMILES string.

Series [1] can be described thus: decomplexation kinetics (kinetic inertia) in acidic aqueous solution, pH 1.2, 37° C. Type of series: physicochemical. The following applies: same conditions (pH 1.2, 37° C.); linear gadolinium complexes. Here is the method: What is more, iso4 is the group of isomers which has the best kinetic inertia (also known as the kinetic stability) among the four groups isolated by the inventors. Specifically, the inventors evaluated the kinetic inertia of the four groups of isomers by studying their decomplexation kinetics in acidic aqueous solution (pH=1.2), at 37° C. The half-life time values (T1/2) which were determined for each of the groups of isomers are indicated in table 1 below, the half-life time corresponding to the time after which 50% of the amount of complex initially present has been dissociated, according to the following decomplexation reaction (equation 2): […]

Series [2] in a line: formulation tests (concentrations of trometamol and of free ligand). In kind it is physicochemical. Here is the method:
Various concentrations of trometamol from 0 to 100 mM were tested.
Various concentrations of macrocyclic ligand of formula (L) from 0 to 2.5 mM were tested.

For series [3] the following is noted: formation of the gadolinium complex; as described in WO 2014/174120, DOTA-Gd for comparison; cited from earlier work.

Take `O=C([O-])CN(CCN(CC(=O)[O-])CC(=O)[O-])CCN(CC(=O)[O-])CC(=O)[O-].[Gd+3]` [gadopentetate]: the “kinetic inertia, dissociation in words” value in series [1] is “dissociate instantaneously”.
As for `CNC(=O)CN(CCN(CCN(CC(=O)[O-])CC(=O)NC)CC(=O)[O-])CC(=O)[O-].[Gd+3]` [gadodiamide], the “kinetic inertia, dissociation in words” value in series [1] is recorded as “dissociate instantaneously”.
Turning to `NC(CO)(CO)CO` [trometamol, Tris(hydroxymethyl)aminomethane], in series [2] (content of 10 mM (0.12% w/v), 0 to 100 mM tested), the “pH stability of the formulation” value is listed as “sufficient to ensure the pH stability of the formulation”.
Regarding `O=C([O-])CN1CCN(CC(=O)[O-])CCN(CC(=O)O)CCN(CC(=O)[O-])CC1.[Gd+3]` [DOTA-Gd, gadolinium complex of 1,4,7,10-tetraazacyclododecane-N,N′,N″,N′″-tetraacetic acid], the “log (Ktherm), stability constant” value in series [3] is reported as 25.6.
On to `O=C(CCC(C(=O)O)N1CCN(C(CCC(=O)NCC(O)CO)C(=O)O)Cc2cccc(n2)CN(C(CCC(=O)NCC(O)CO)C(=O)O)CC1)NCC(O)CO` (centres unmarked) [macrocyclic ligand of formula (L)], for which the “release of free Gd during the process and during the lifetime of the product” value in series [2] (content of 1 mM (0.08% m/v or 0.2 mol/mol %), 0 to 2.5 mM tested) is listed as “absence of release of free Gd”.
